pIC50: −log10 of the molar value.

For one experiment, the target named is T1, ZmCKX1 (Zea mays, UniProt Q9T0N8).
T1 construct: made in house; host or cells: Yarrowia lipolytica
T1 sequence (Q9T0N8 19-534): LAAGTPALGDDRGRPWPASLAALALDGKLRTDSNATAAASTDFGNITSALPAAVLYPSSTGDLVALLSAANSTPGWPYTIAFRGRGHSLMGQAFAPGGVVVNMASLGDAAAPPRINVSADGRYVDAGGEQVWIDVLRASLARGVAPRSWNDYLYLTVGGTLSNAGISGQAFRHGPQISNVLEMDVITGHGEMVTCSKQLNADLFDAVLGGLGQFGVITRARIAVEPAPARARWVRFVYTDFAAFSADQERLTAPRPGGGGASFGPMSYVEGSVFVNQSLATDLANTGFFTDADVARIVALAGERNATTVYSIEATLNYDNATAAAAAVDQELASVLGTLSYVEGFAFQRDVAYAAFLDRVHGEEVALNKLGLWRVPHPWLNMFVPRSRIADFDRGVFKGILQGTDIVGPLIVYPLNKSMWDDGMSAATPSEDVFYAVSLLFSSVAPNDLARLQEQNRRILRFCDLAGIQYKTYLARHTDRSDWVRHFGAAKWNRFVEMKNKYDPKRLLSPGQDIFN
Kind of experiment: ZmCKX1 inhibition, PMS/MTT assay. The format is biochemical, maize.
Settings: not given
As to the method: The IC50 (concentration of a substance that causes 50% inhibition of the enzyme activity) was measured by PMS/MTT assay [phenazine methosulphate/3-(4,5-dimethylthiazol-2-yl)-2,5-diphenyltetrazolium bromide]. The assay was performed in 96-well microtiter plates. Each well contained a reaction mixture with a final concentration of: 0.1 M KH2PO4, pH 7.4, 1 mM MTT, 0.2 mM PMS, tested substance in a concentration range of 0.1 nM - 1 µM and 10 µM N^6-isopentenyladenine (iP) as a substrate. To this reaction mixture 100 µL of medium containing the active enzyme ZmCKX1 was added. The enzyme was produced by the yeast Yarrowia lipolytica and isolated according to the protocol (Kopečný D. et al., 2005, […] 87:1011-1022). The plates were incubated for 30 min at 37 °C and the enzymatic reaction was stopped by the addition of 25 µL of 35% acetic acid. Then, the absorbance at 578 nm was measured on a spectrophotometer, and the absorbance of the sample without the substrate was substracted as a reference value. The IC50 value was determined from the concentration-dependent curves in GraphPad Prism software. The values shown in Table 1 are the average of at least two measurements each performed in three repetitions. […] The substance 3,5DCl-Ph-U is 1-(3,5-dichlorophenyl)-3-phenylurea, which we have been prepared to compare its inhibitory activity with the compounds presented in the present invention. Addition of the amide group to the unsubstituted phenyl ring of this substance gives the compound 2AD-3,5DC, which has 42-fold better inhibitory activity with the ZmCKX1 enzyme than 3,5DCl-Ph-U. F-INCYDE ((2-fluoro-9H-purin-6-yl)-(3-methoxyphenyl)amine), CPPU (1-(2-chloropyridin-4-yl)-3-phenylurea), and DCPPU (1-(2,6-dichloropyridin-4-yl)-3-phenylurea) are substances known in the prior art.
Take `CCNC(=O)c1ccc(Br)cc1NC(=O)Nc1cc(Cl)cc(Cl)c1` [compound 35, 4-Bromo-2-[3-(3,5-dichlorophenyl)ureido]-N-ethylbenzamide]: the pIC50 was 8.52. Molecule `COc1ccc(C(N)=O)c(NC(=O)Nc2cccc(Br)c2)c1` [compound 23, 2-[3-(3-bromophenyl)ureido]-4-methoxybenzamide] had a pIC50 of 7.48.

`NC(=O)c1ccccc1NC(=O)Nc1cc(Cl)cc(Br)c1` [compound 9, 2-[3-(3-bromo-5-chlorophenyl)ureido]benzamide]: the pIC50 was 7.40. The same measure, in the same setting: with `NC(=O)c1ccccc1NC(=O)Nc1cccc(Br)c1` [compound 2, 2-[3-(3-bromophenyl)ureido]benzamide] the figure was 6.47. Molecule `NC(=O)c1ccc(OC(F)(F)F)cc1NC(=O)Nc1cccc(Br)c1` [compound 27, 2-[3-(3-bromophenyl)ureido]-4-trifluoromethoxybenzamide] showed a negative logarithm of the IC50 (pIC50) of 8.15. The molecule `NC(=O)c1ccccc1NC(=O)Nc1cc(Br)cc(Br)c1` [compound 7, 2-[3-(3,5-dibromophenyl)ureido]benzamide] showed a pIC50 of 7.33. Molecule `NC(=O)c1ccc(OC(F)(F)F)cc1NC(=O)Nc1cc(Cl)cc(Cl)c1` [compound 28, 2-[3-(3,5-Dichlorophenyl)ureido]-4-trifluoromethoxybenzamide] showed a pIC50 of 9.00. The same measure, in the same setting: under `COc1cc(Cl)cc(NC(=O)Nc2cc(Br)ccc2C(N)=O)c1` [compound 20, 4-bromo-2-[3-(3-chloro-5-methoxyphenyl)ureido]benzamide] stands 7.47; under `O=C(Nc1cc(Cl)cc(Cl)c1)Nc1cc(Br)ccc1C(=O)NCCO` [compound 48, 4-Bromo-2-[3-(3,5-dichlorophenyl)ureido]-N-(2-hydroxy-ethyl)benzamide], 8.30.

The experiment is the same for the next values; noted with them: 10 µM iP as substrate, pH 7.4, 30 min at 37 °C; average of at least two measurements; read-out: IC50 (µM) ZmCKX1.
For `CCCNC(=O)c1ccccc1NC(=O)Nc1cccc(F)c1` [compound 39, 2-[3-(3-fluorophenyl)ureido]-N-propylbenzamide], the IC50 worked out at 0.17 µM. In the case of `COc1ccc(C(=O)NCCCO)c(NC(=O)Nc2cc(Cl)cc(Cl)c2)c1` [compound 53, 2-[3-(3,5-dichlorophenyl)ureido]-4-methoxy-N-(3-hydroxy-propyl)benzamide], the half-maximal inhibitory concentration (IC50) was 0.02 µM. With `CCNC(=O)c1ccc(OC)cc1NC(=O)Nc1cccc(Cl)c1` [compound 36, 2-[3-(3-chlorophenyl)ureido]-4-methoxy-N-ethylbenzamide], the IC50 was determined as 0.021 µM.

For `NC(=O)c1ccc(F)cc1NC(=O)Nc1cc(Cl)cc(Cl)c1` [compound 13, 2-[3-(3,5-dichlorophenyl)ureido]-4-fluorobenzamide], the IC50 worked out at 0.018 µM. Take `NC(=O)c1ccc(Cl)cc1NC(=O)Nc1cc(Cl)cc(Cl)c1` [compound 16, 4-Chloro-2-[3-(3,5-dichlorophenyl)ureido]benzamide]: the IC50 worked out at 0.002 µM.

On to `COc1ccc(C(=O)NN)c(NC(=O)Nc2cc(Cl)cc(Cl)c2)c1` [compound 46, 1-(3,5-dichlorophenyl)-3-(2-hydrazinocarbonyl-5-methoxyphenyl)-urea], for which the IC50 was 0.018 µM.

For the molecule `COc1ccc(C(N)=O)c(NC(=O)Nc2cccc(F)c2)c1` [compound 21, 2-[3-(3-fluorophenyl)ureido]-4-methoxybenzamide], the IC50 was found to be 0.058 µM.

Regarding `NCCNC(=O)c1ccc(OC(F)(F)F)cc1NC(=O)Nc1cc(Cl)cc(Cl)c1` [compound 57, 2-[3-(3,5-dichlorophenyl)ureido]-4-trifluoromethoxy-N-(2-amino-ethyl)benzamide], the IC50 was 0.008 µM. Consider `NC(=O)c1ccc(OC(F)(F)F)cc1NC(=O)Nc1cccc(Cl)c1` [compound 26, 2-[3-(3-chlorophenyl)ureido]-4-trifluoromethoxybenzamide], for which the IC50 is 0.009 µM. The same measure, in the same setting: under `CCNC(=O)c1ccc(OC)cc1NC(=O)Nc1cc(Cl)cc(Cl)c1` [compound 37, 2-[3-(3,5-dichlorophenyl)ureido]-4-methoxy-N-ethylbenzamide] stands 0.002 µM; under `NC(=O)c1ccccc1NC(=O)Nc1cc(Cl)cc(Cl)c1` [compound 6, 2-[3-(3,5-Dichlorophenyl)ureido]benzamide], 0.022 µM; under `COc1cccc(NC(=O)Nc2ccccc2C(N)=O)c1` [compound 3], 0.32 µM. Consider `NC(=O)c1ccccc1NC(=O)Nc1cc(F)cc(Cl)c1` [compound 8, 2-[3-(3-Chloro-5-fluorophenyl)ureido]benzamide], for which the IC50 was 0.11 µM. As for `CCNC(=O)c1ccc(OC(F)(F)F)cc1NC(=O)Nc1cc(F)cc(Cl)c1` [compound 38, 2-[3-(3-chloro-5-fluorophenyl)ureido]-4-trifluoromethoxy-N-ethylbenzamide], the half-inhibitory concentration (IC50) came to 0.001 µM. Still for that read-out and setting: with `O=C(Nc1cc(Cl)cc(Cl)c1)Nc1ccccc1C(=O)NCCO` [compound 47, 2-[3-(3,5-dichlorophenyl)ureido]-N-(2-hydroxy-ethyl)benzamide] the figure was 0.022 µM. As to `O=C(Nc1cccc(Cl)c1)Nc1ccccc1C(=O)NCCCO` [compound 51, 2-[3-(3-chlorophenyl)ureido]-N-(3-hydroxy-propyl)benzamide], the IC50 was found to be 0.15 µM.

For `CCCNC(=O)c1ccccc1NC(=O)Nc1cc(F)cc(F)c1` [compound 40, 2-[3-(3,5-difluorophenyl)ureido]-N-propylbenzamide], the IC50 amounted to 0.062 µM. Take `CCNC(=O)c1ccccc1NC(=O)Nc1cc(Cl)cc(Cl)c1` [compound 34, 2-[3-(3,5-dichlorophenyl)ureido]-N-ethylbenzamide]: the IC50 was found to be 0.038 µM.

For the molecule `CNC(=O)c1ccc(OC)cc1NC(=O)Nc1cccc(Cl)c1` [compound 33, 2-[3-(3-chlorophenyl)ureido]-4-methoxy-N-methylbenzamide], the half-maximal inhibitory concentration (IC50) was 0.006 µM.

Turning to `O=C(Nc1ccccc1)Nc1cc(Cl)cc(Cl)c1` [3,5DCl-Ph-U, 1-(3,5-dichlorophenyl)-3-phenylurea, reference compound], the IC50 is 0.84 µM.

For `COc1ccc(C(=O)NCCO)c(NC(=O)Nc2cc(Cl)cc(Cl)c2)c1` [compound 50, 2-[3-(3,5-dichlorophenyl)ureido]-4-methoxy-N-(2-hydroxyethyl)benzamide], the IC50 is 0.003 µM. Take `CNC(=O)c1ccc(Cl)cc1NC(=O)Nc1cc(Cl)cc(Cl)c1` [compound 31, 4-chloro-2-[3-(3,5-dichlorophenyl)ureido]-N-methylbenzamide]: the IC50 was 0.014 µM. Consider `CNC(=O)c1ccc(F)cc1NC(=O)Nc1cc(Cl)cc(Cl)c1` [compound 30, 2-[3-(3,5-dichlorophenyl)ureido]-4-fluoro-N-methylbenzamide], for which the IC50 stood at 0.021 µM. For the molecule `CNC(=O)c1ccccc1NC(=O)Nc1cc(Cl)cc(Cl)c1` [compound 29, 2-[3-(3,5-dichlorophenyl)ureido]-N-methylbenzamide], the IC50 stood at 0.03 µM. In the case of `COc1ccc(C(=O)NCCN)c(NC(=O)Nc2cc(Cl)cc(Cl)c2)c1` [compound 56, 2-[3-(3,5-dichlorophenyl)ureido]-4-methoxy-N-(2-amino-ethyl)benzamide], the IC50 amounted to 0.013 µM. Take `COc1ccc(C(N)=O)c(NC(=O)Nc2cccc(Cl)c2)c1` [compound 22, 2-[3-(3-chlorophenyl)ureido]-4-methoxybenzamide]: the concentration for half-maximal inhibition (IC50) was determined as 0.035 µM. The same measure, in the same setting: with `COc1ccc(C(=O)NCCO)c(NC(=O)Nc2cccc(F)c2)c1` [compound 49, 2-[3-(3-fluorophenyl)ureido]-4-methoxy-N-(2-hydroxy-ethyl)benzamide] the figure was 0.04 µM; with `CCCNC(=O)c1ccc(OC)cc1NC(=O)Nc1cc(Cl)cc(Cl)c1` [compound 43, 2-[3-(3,5-dichlorophenyl)ureido]-4-methoxy-N-propylbenzamide], 0.004 µM. In the case of `NC(=O)c1ccc(Cl)cc1NC(=O)Nc1cccc(Cl)c1` [compound 15, 4-chloro-2-[3-(3-chlorophenyl)ureido]benzamide], the IC50 was 0.035 µM.

The same experiment, now with this note: ratio versus 3,5DCl-Ph-U.
For the molecule `NC(=O)c1ccccc1NC(=O)Nc1cc(Cl)cc(Cl)c1` [compound 6, 2-[3-(3,5-Dichlorophenyl)ureido]benzamide], the “better inhibitory activity with the ZmCKX1 enzyme than 3,5DCl-Ph-U” value was determined as 42 fold.

The same experiment, now with this note: read-out: IC50 (µM) ZmCKX1; 10 µM iP as substrate, pH 7.4, 30 min at 37 °C; average of at least two measurements.
As to `O=C(Nc1cccc(Cl)c1)Nc1cc(Br)ccc1C(=O)NCCCO` [compound 52, 4-bromo-2-[3-(3-chlorophenyl)ureido]-N-(3-hydroxy-propyl)benzamide], the IC50 was determined as 0.08 µM.

In the case of `CCCNC(=O)c1ccc(Cl)cc1NC(=O)Nc1cc(F)cc(F)c1` [compound 42, 4-chloro-2-[3-(3,5-difluorophenyl)ureido]-N-propylbenzamide], the IC50 turned out to be 0.022 µM. For the molecule `NC(=O)c1ccc(Cl)cc1NC(=O)Nc1cc(Cl)cc(Br)c1` [compound 17, 2-[3-(3-bromo-5-chlorophenyl)ureido]-4-chlorobenzamide], the IC50 stood at 0.001 µM. On the same count and under the same terms, with `NC(=O)c1ccc(Br)cc1NC(=O)Nc1cc(Cl)cc(Cl)c1` [compound 19, 4-Bromo-2-[3-(3,5-dichlorophenyl)ureido]benzamide] the figure was 0.001 µM.

Broadly, the pIC50 is −log10 of the IC50, conventionally taken in molar units. Low readings indicate a high IC50, high ones a low IC50. The IC50 is the concentration that inhibits the measured activity by half.

Values taken from patent publication EP4120837B1, “INHIBITORS OF CYTOKININ OXIDASE DERIVED FROM 2-(3-PHENYLUREIDO)BENZAMIDE, USE THEREOF AND PREPARATIONS CONTAINING THESE DERIVATIVES” (Univerzita Palackého v Olomouci, priority 2020, dated 2021).
